The record followed here is US20090023773A1, “COMPOSITIONS AND METHODS FOR MODULATING GATED ION CHANNELS” (PainCeptor Pharma Corporation, priority 2007, published 2009).

For the assay, the target named is T1, hASIC2a/3 steady state (window) current (Homo sapiens, UniProt Q16515+Q9UHC3).
T1 construct: expressed in transfected cells; host or cells: Xenopus laevis oocytes, cRNA microinjection, 1:1 mass ratio
T1 sequence (Q16515 1-512): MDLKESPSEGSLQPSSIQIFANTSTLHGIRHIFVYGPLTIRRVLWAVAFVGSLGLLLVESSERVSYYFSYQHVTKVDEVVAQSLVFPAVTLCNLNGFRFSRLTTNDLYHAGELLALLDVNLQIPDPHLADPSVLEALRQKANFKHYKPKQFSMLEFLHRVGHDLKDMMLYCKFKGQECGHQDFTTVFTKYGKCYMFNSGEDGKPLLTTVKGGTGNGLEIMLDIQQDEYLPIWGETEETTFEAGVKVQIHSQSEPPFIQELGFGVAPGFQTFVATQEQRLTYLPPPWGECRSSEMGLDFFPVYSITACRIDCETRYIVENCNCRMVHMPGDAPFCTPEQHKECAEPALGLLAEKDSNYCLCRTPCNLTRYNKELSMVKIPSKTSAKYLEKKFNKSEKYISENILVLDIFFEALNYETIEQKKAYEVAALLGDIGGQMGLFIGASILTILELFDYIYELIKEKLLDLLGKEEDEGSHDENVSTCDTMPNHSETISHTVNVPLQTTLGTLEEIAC
T1 sequence (Q9UHC3 1-531): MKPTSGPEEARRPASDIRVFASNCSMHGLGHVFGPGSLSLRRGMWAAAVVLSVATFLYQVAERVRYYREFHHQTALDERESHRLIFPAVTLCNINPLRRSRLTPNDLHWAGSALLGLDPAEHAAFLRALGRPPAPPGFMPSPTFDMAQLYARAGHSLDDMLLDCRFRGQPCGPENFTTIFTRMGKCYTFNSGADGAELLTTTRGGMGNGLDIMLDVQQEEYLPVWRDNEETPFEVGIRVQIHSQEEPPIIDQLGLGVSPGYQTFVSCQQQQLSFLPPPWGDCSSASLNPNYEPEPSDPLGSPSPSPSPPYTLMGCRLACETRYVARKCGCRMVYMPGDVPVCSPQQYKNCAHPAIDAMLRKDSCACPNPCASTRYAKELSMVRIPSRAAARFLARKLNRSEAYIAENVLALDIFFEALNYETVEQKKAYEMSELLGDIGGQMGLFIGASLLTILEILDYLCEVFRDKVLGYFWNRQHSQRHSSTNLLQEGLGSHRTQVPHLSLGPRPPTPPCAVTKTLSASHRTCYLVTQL
Description: ASIC2a/3 assay, automated two-electrode voltage clamp in oocytes microinjected with hASIC2a and hASIC3 (Example 2). It is filed as cell-based. The note with it: 50 μM, perfusion at pH 6.5; FIG. 8. On the procedure:
The ASIC2a/3 assay involves methods and procedures commonly in use and have been extensively described in the literature.
Briefly, a mature female frog is placed on its back after anesthesia, 20 min in 0.1% (w/v) Tricaine (Sigma), and incision is made on the lower abdomen through the skin, muscle and into the peritoneum. Lobes of ovaries are pulled out with forceps, cut and placed in a solution of Ca^2+-free Barth's with 1% (w/v) collagenase Type I (Sigma) added, for 90 minutes. The dissociated eggs are then washed with complete Barth's, supplementd with […] Gentamycin.
Plasmids containing cDNA for ASIC2a+ASIC3 are linearized and used for cRNA synthesis. The synthesis is done according to the protocol insert of the synthesis kit (e.g. Message Machine, Ambion). The final resuspension of the cRNA is made to provide a concentration of 1 μg/μL. The cDNA's for hASIC2a and hASIC3 are mixed with a 1:1 mass ratio and injected at […] per oocyte. Micro-injected oocytes start expressing hASIC2a3 specific current after 24 h.
The oocytes micro-injected with hASIC2a and hASIC3 cRNA's are placed in the recording chambers of the automated rig and then impaled with the voltage and current micro-electrodes. […] The voltage and current for each oocyte is recorded in one pass during both applications for later analysis. […]

Turning to `Cc1ccc(-c2nc(Nc3ccc(C(=O)O)cc3)c3cc(Cl)ccc3n2)cc1` [Compound 124], the “inhibition of the ASIC 2a/3 current” value is on record as “specific inhibition”.
